# Patent publication US8518953B2, “Aminopyrimidines useful as inhibitors of protein kinases” (Vertex Pharmaceuticals Incorporated, priority 2007, dated 2013)
# Key:
# [1] = system: E16 rat hippocampal or cortical neurons; assay: Axonal Branching Assay; format: cell-based
# Method: Compounds are tested for the ability to enhance axonal branching in E16 rat hippocampal or cortical neurons. 1 mg/ml stock of PDL is diluted into 100 μg/ml in DI water. The glass coverslips are coated for at least 1 hour at 37° C. prior to doing the dissection. PDL is aspirated and the plates are rinsed with PBS and air-dried in hood. Cortical or hippocampal lobes are combined with 9 mL of Base media (Neurobasal+Pen/Strep) and put on ice. 1 mL of 10× trypsin solution is added and the mixture is swirled gently. The tissue is then digested via incubation in a 37° C. waterbath for 20 minutes. After 20 minutes, 10 μl/ml DNase (100 μL DNase) is added and the mixture is incubated for another 5 minutes. The cells are spun at 1000 rpm for 1 minute. The enzyme solution is then removed without removing any of the brain fragments sitting on the bottom. The solid is washed 3 times with Wash media (Neurobasal+10% and Pen/Strep). […] The cells are counted in a hemacytometer and seeded at 5000-10000 cells/well in a 24 well plate with glass coverslip inserts coated with PDL. […] Images are captured at 10× and 20× on an upright microscope and axonal branching is determined by quantification of area under threshold fluorescence of neurofilament Alexa 488 per cell. Dendritic branching is determined by quantification of area under threshold fluorescence of MAP2 Alexa 568 per cell. […]
# GSK-3α/β pTYR = assay: pTYR Biomarker Analysis in brains of MCAO rats (Western blot); format: in vivo, rat; settings: all doses, at the termination of the study, compared to vehicle treated rats
# Method: RIPA consists of 0.5 ml 10% SDS, 2.5 ml 10% Sodium Deoxycholate, 0.5 ml NP40, and 46.5 ml PBS. […] 10 mL of lysis buffer (modified RIPA) is added to tissue (1 ml/½ brain) and homogenized on ice. The lysates are then centrifuged at 10000 rpm for 10 min at 4° C. The supernatant is then transferred to a new tube and kept on ice. The supernatant samples are respun at 10000 rpm for 10 min at 4° C. The supernatant is then transferred to a new tube and kept on ice. An aliquot of the supernatant is taken and the protein is measured with the Pierce BCA protein assay kit (cat#23225), using BSA standard curve (do a 1:25 dilution in PBS). The remaining supernatant is diluted to 1 ug/ul with Biorad Laemmli Sample buffer (cat#161-0737) with β-mercaptoethanol added. The samples are boiled for 5 min at 95° C. and spun in a microfuge for 1 minute. The samples are snap frozen on dry ice and stored at −20° C. 10 ug of protein/lane (10 uL) is then loaded and the Western blot is run according to Example 3. Inhibition of GSK-3α/β pTYR is determined by comparing the density of the protein band in samples obtained from animals treated with compound to samples from vehicle treated animals. […] Lysates were analyzed by Western blot (see Example 3) and probed for GSK-3α/β pTYR levels.
compound,measurement,setting,value
"Cc1nc(-c2ccccc2Cl)nc(Nc2n[nH]c3ncc(F)cc23)c1C [Compound I-1, N-(2-(2-chlorophenyl)-5,6-dimethylpyrimidin-4-yl)-5-fluoro-1H-pyrazolo[3,4-b]pyridin-3-amine]",axonal and dendritic branching,"[1]; 10 nM, 7 days",increased axonal and dendritic branching
same,axon growth,[1]; concentrations that have been shown to induce β-catenin,axon growth was inhibited
same,GSK-3α/β pTYR signal in the brain,GSK-3α/β pTYR,significant reduction in pTYR signal
